# Read-outs that look alike come from different tables or passages of the source. *1 amine or outer side, *2 acyl side, *3 side chain or, on linkers, in order; H or OH if unused. Where a SMILES comes first, the peptide text is derived from it. Bridges are numbered along the chain shown (N, C = ends). [ ]: non-standard residue; d: D form. The star is where a group is joined. ξ: configuration not given here. Dab(3ξ-OH) = O=C([C@@H](N[*:1])C(O)CN[*:3])[*:2]; X1 = C/C=C(/N[*:1])C(=O)[*:2]; Lauroyl = CCCCCCCCCCCC(=O)*; Decanoyl = CCCCCCCCCC(=O)*; Nonanoyl = CCCCCCCCC(=O)*; Octanoyl = CCCCCCCC(=O)*; Dab = NCC[C@H](N)C(=O)O; X2 = CCCC/C=C\CCCC(=O)*
# How the values were obtained:
# [1] = tested on: A. caviae CIP 7616; type: cell-based, Aeromonas caviae; details: broth microdilution, 0.1 to 100 µM, 1.10^6 UFC/mL, 48 h, read by unaided eye
# Experimental: (§1) Antibacterial activity was assayed against a panel of micro-organisms including human and aquaculture pathogenic bacterial species. MICs were performed and defined according to internationally recognized standards (CLSI [21]). Polymyxin B (PMB), an antibiotic CLP produced by Paenibacillus polymyxa, was used as positive control. The major produced alterins, i.e., alt_952, alt_954, alt_970 and alt_980 were assayed against the whole panel of target cells while the minor ones were only tested against a few bacterial strains (Table 2).
# (§2) The bacterial strains Aeromonas caviae CIP 7616, Aeromonas hydrophila CIP 7614, Escherichia coli ML35, Escherichia coli SBS 363, Salmonella enterica CIP 8297 and Yersinia ruckeri ATCC 29473 were grown in Tryptic Soy Broth. The marine bacterial strains Vibrio crassostreaeJ2–9, Vibrio tasmaniensisLGP32, Vibrio tapetis CECT 4600 were grown in Marine Broth. All of them were cultivated at optimal temperature according to ATCC and CIP specifications. The strain Vibrio parahaemolyticus13-028A/3 was grown at 28 °C in Tryptic Soy Broth supplemented in NaCl (20 g.L^−1) according to [47]. The strains Pseudoalteromonas sp. hCg-6 and hCg-42 were cultured using a synthetic medium containing: 17.11 g sucrose, 30 g sea salts (Sigma-S9883), 7.6 g K2HPO4, 3 g KH2PO4 and 20 mL MEM 50X (Dulbecco) per liter. The cultures were grown at 18 °C for 72 h with shaking (100 rpm).
# (§3) MICs were determined using broth microdilution method according to [21]. To resume, antibacterial compounds ranging from 0.1 to 100 µM were assayed against the target bacteria in mid-logarithmic phase culture (1.10^6 UFC.mL^−1) in adapted culture medium according to the strain. MICs were examined by unaided eye after a 48h-incubation time at the optimal temperature growth. The lipopeptide PMB (Sigma-P4932) was used as antibiotic control.
# [2] = tested on: A. hydrophila CIP 7614; type: cell-based, Aeromonas hydrophila
# Experimental: as §1, §2, §3
# [3] = tested on: E. coli ML35; type: cell-based, Escherichia coli
# Experimental: as §1, §2, §3
# [4] = tested on: E. coli SBS363; type: cell-based, Escherichia coli; details: E. coli SBS363 (short-chain LPS); broth microdilution, 0.1 to 100 µM, 1.10^6 UFC/mL, 48 h, read by unaided eye
# Experimental: as §1, §2, §3
# [5] = tested on: P. aeruginosa ATCC 27853; type: cell-based, Pseudomonas aeruginosa
# Experimental: as §1, §3
# [6] = tested on: Pseudoalteromonas hCg-42; type: cell-based, Pseudoalteromonas sp.; details: 48 h
# Experimental: as §1, §2, §3
# [7] = tested on: Pseudoalteromonas hCg-6; type: cell-based, Pseudoalteromonas sp.; details: 48 h
# Experimental: as §1, §2, §3
# [8] = tested on: S. enterica CIP 8297; type: cell-based, Salmonella enterica; details: broth microdilution, 0.1 to 100 µM, 1.10^6 UFC/mL, 48 h, read by unaided eye
# Experimental: as §1, §2, §3
# [9] = tested on: V. harveyi ORM4; type: cell-based, Vibrio harveyi
# Experimental: as §1, §3
# [10] = tested on: V. parahaemolyticus 13-028A/3; type: cell-based, Vibrio parahaemolyticus; details: broth microdilution, 0.1 to 100 µM, 1.10^6 UFC/mL, 48 h, read by unaided eye
# Experimental: as §1, §2, §3
# [11] = tested on: V. tapetis CECT 4600T; type: cell-based, Vibrio tapetis
# Experimental: as §1, §2, §3
# [12] = tested on: V. tasmaniensis LGP 32; type: cell-based, Vibrio tasmaniensis; details: 48 h
# Experimental: as §1, §2, §3
# [13] = tested on: Y. ruckeri ATCC 29473; type: cell-based, Yersinia ruckeri
# Experimental: as §1, §2, §3
# [14] = tested on: V. tasmaniensis LGP32; assay: Viability (cultivability, CFU count) in seawater; type: cell-based, Vibrio tasmaniensis; details: for cultivability loss of V. tasmaniensis (log reduction of CFU): 20 µM, 4 h incubation in sterile seawater, inoculum 1.10^6 UFC/mL, plated in duplicate
# Experimental: As a first step, we have measured the antimicrobial activity of alt_952, alt_954, alt_970 and alt_980 against V. tasmaniensis LGP32 in seawater after a 4 hour-long incubation. […] The effects on membrane were also investigated under the same experimental conditions using live/dead bacterial viability kit for flow cytometry (Figure 6). A net cultivability loss of V. tasmaniensis (2-log reduction) was observed when incubated with alt_954 and alt_980 indicative of a bactericidal effect (Figure 7A). In these conditions, V. tasmaniensis was much less affected by alt_970 (1-log reduction) and not by alt_952 (Figure 7A).
# […] After a 4 h-long incubation, viable bacteria were counted. Diluted samples (50 µL) in sterile seawater were spread in duplicate on appropriate medium. Cultivable bacterial concentration (CFU mL^−1) was determined after overnight incubation at optimal growth temperature.
# [15] = tested on: Vibrio tasmaniensis LGP32; assay: Membrane potential, DiBAC4(3) flow cytometry; type: cell-based
# Experimental: To assess alterin physiological impact on Gram-negative cells, flow cytometry analyses were implemented using Live/Dead cell viability assay and the membrane potential dye, DiBAC4(3) on V. tasmaniensis LGP32 treated as previously (i.e., […]).
# The membrane potential of the target bacteria was analysed using the potential-sensitive probe Bis-1,3-Dibutylbarbituric AcideTrimethineOxonol, (DiBAC4(3), MolecularProbes). DiBAC4(3) was reconstituted in DMSO stock solution at 1mM and stocked at −20 °C until use. Samples (500 µL) were incubated with 1 µL of DiBAC4(3) stock solution for 10mn in the dark. Under the effect of depolarization cells accumulate DiBAC4(3), fluoresce bright green and can easily be detected by flow cytometry. After excitation at 488 nm cells with depolarized membrane become fluorescent and reemit at 516 nm recovery of the signal at FL1. Positive control of the initial sample is carried out with 20% alcohol.
# [16] = LPS binding, QCL-1000 chromogenic Limulus Amoebocyte Lysate (LAL) assay; parameters: species or system Escherichia coli; details: LPS 1 EU/mL pre-incubated with CLPs 0.01 to 10 µM, 15 min, 37 °C
# From the text: To gain insights into LPS-alterin interactions, we used an endotoxin detection assay, the QCL-1000^TM Endpoint chromogenic Limulus Amoebocyte Lysate (LAL) assay (Lonza). We compared alt_954, alt_970 and alt_980 for their ability to bind LPS from E. coli O111:B4. All alterins bound to LPS in a dose-dependent manner, as indicated by the reduction of biologically active LPS with increasing alterins concentrations (Figure 4A). […] To examine alterin LPS-binding properties in more detail, we performed a surface plasmon resonance (SPR) assay using the Biacore technology (GE Healthcare). The SPR binding measurements were performed using the alt_954 and alt_970. PMB was used as a positive control. The CLPs were immobilized to a CM5 sensor chip surface and titrated with LPS. […] The dose-dependent effect observed (Figure 4B) highlights the LPS-binding properties of the alterins. Both LPS-binding assays, i.e., LAL and SPR, are fully agreeing for alt_954. Moreover, the LPS-binding properties of alterins followed the same general pattern as that of antibacterial activity.
# The CLPs were assayed for their LPS-binding properties by using the QCL-1000 Limulus Amoebocyte Lysate kit (LAL-Lonza, Bâle, Switzerland) according to manufacturer instructions. […] Free LPS was then quantified according to the manufacturer’s instructions. […]
# [17] = A. hydrophila CIP 7614, broth microdilution, 0.1 to 100 µM, 1.10^6 UFC/mL, 48 h, read by unaided eye
# [18] = E. coli ML35 (long-chain LPS), broth microdilution, 0.1 to 100 µM, 1.10^6 UFC/mL, 48 h, read by unaided eye
# [19] = P. aeruginosa ATCC 27853, broth microdilution, 0.1 to 100 µM, 1.10^6 UFC/mL, 48 h, read by unaided eye
# [20] = Pseudoalteromonas hCg-42 (producing strain), broth microdilution, 0.1 to 100 µM, 1.10^6 UFC/mL, read by unaided eye
# [21] = Pseudoalteromonas hCg-6 (producing strain), broth microdilution, 0.1 to 100 µM, 1.10^6 UFC/mL, read by unaided eye
# [22] = V. harveyi ORM4, broth microdilution, 0.1 to 100 µM, 1.10^6 UFC/mL, 48 h, read by unaided eye
# [23] = V. tapetis CECT 4600T, broth microdilution, 0.1 to 100 µM, 1.10^6 UFC/mL, 48 h, read by unaided eye
# [24] = V. tasmaniensis LGP 32, broth microdilution, 0.1 to 100 µM, 1.10^6 UFC/mL, read by unaided eye
# [25] = Y. ruckeri ATCC 29473, broth microdilution, 0.1 to 100 µM, 1.10^6 UFC/mL, 48 h, read by unaided eye
Compound,MIC [1] [µM],"MIC [2, 17] [µM]","MIC [3, 18] [µM]",MIC [4] [µM],"MIC [5, 19] [µM]","MIC [6, 20] [µM]","MIC [7, 21] [µM]",MIC [8] [µM],"MIC [9, 22] [µM]",MIC [10] [µM],"MIC [11, 23] [µM]","MIC [12, 24] [µM]","MIC [13, 25] [µM]","MIC ([3]; ML35, 48 h) [µM]","MIC ([5]; ATCC 27853, 48 h) [µM]",MIC [7] [µM],"MIC ([9]; ORM4, 48 h) [µM]",MIC [12] [µM],"MIC ([13]; ATCC 29473, 48 h) [µM]",cultivability loss of V. tasmaniensis (log reduction of CFU) [14],further results
"Polymyxin B [PMB, reference compound]",3.1,0.8,3.1,0.2,1.6,>100,>100,0.8,25,>100,>100,3,0.4,,,,,,,,
C/C=C1/NC(=O)[C@@H](NC(=O)CCC/C=C\CCCC)C(O)CNC(=O)[C@H](C(O)CN)NC(=O)[C@H](C(O)CN)NC(=O)[C@H](CCCNC(=N)N)NC(=O)[C@H](CC(C)C)NC(=O)[C@H](CCN)NC1=O (stereo partly shown) [alt_952] (X2-[Dab(3ξ-OH)][X1][Dab]LR[Dab(3ξ-OH)][Dab(3ξ-OH)]; lactam 1-C),,,,0.8,,,,6.25,,,,,,25,50,>100,12.5,50,0.4,no antibacterial effect,"MIC [6]: >100 µM; MIC ([11]; CECT 4600, 48 h): >100 µM; cultivability loss of V. tasmaniensis ([14]; 300 µM, 4 h in seawater (data not shown)): identical to those observed using alt_954 and alt_980 at 20 µM; cells with depolarized membrane ([15]; 20 µM, 4 h in sterile seawater): around 55%; cells depolarization ([15]; 300 µM, 4 h in seawater): 100%"
C/C=C1/NC(=O)[C@@H](NC(=O)CCCCCCCCCCC)C(O)CNC(=O)[C@H](C(O)CN)NC(=O)[C@H](C(O)CN)NC(=O)[C@H](CCCNC(=N)N)NC(=O)[C@H](CC(C)C)NC(=O)[C@H](CCN)NC1=O (stereo partly shown) [alt_982] (Lauroyl-[Dab(3ξ-OH)][X1][Dab]LR[Dab(3ξ-OH)][Dab(3ξ-OH)]; lactam 1-C),,,,6.3,,,,,,,,,,,,,,,12.5,,
C/C=C1/NC(=O)[C@@H](NC(=O)CCCCCCCCC)C(O)CNC(=O)[C@H](C(O)CN)NC(=O)[C@H](C(O)CN)NC(=O)[C@H](CCCNC(=N)N)NC(=O)[C@H](CC(C)C)NC(=O)[C@H](CCN)NC1=O (stereo partly shown) [alt_954] (Decanoyl-[Dab(3ξ-OH)][X1][Dab]LR[Dab(3ξ-OH)][Dab(3ξ-OH)]; lactam 1-C),5.5,2.7,1.4,0.2,22,>100,>100,0.7,1.4,6.25,>100,2.7,0.3,,,,,,,2 log,"LPS binding (reduction of biologically active LPS, LAL assay) [16]: more efficiently than alt_970"
C/C=C1/NC(=O)[C@@H](NC(=O)CCCCCCC)C(O)CNC(=O)[C@H](C(O)CN)NC(=O)[C@H](C(O)CN)NC(=O)[C@H](CCCNC(=N)N)NC(=O)[C@H](CC(C)C)NC(=O)[C@H](CCN)NC1=O (stereo partly shown) [alt_926] (Octanoyl-[Dab(3ξ-OH)][X1][Dab]LR[Dab(3ξ-OH)][Dab(3ξ-OH)]; lactam 1-C),,,,50,,,,12.5,,,,,,100,>100,>100,50,50,50,,"MIC ([2]; CIP 7614, 48 h): >100 µM"
C/C=C1/NC(=O)[C@@H](NC(=O)CCCCCCCC)C(O)CNC(=O)[C@H](C(O)CN)NC(=O)[C@H](C(O)CN)NC(=O)[C@H](CCCNC(=N)N)NC(=O)[C@H](CC(C)C)NC(=O)[C@H](CCN)NC1=O (stereo partly shown) [alt_940] (Nonanoyl-[Dab(3ξ-OH)][X1][Dab]LR[Dab(3ξ-OH)][Dab(3ξ-OH)]; lactam 1-C),,,,25,,,,,,,,,,50,50,>100,6.25,6.25,6.25,,"MIC ([2]; CIP 7614, 48 h): 25 µM"

# From article PMC7764243, “Alterins Produced by Oyster-Associated Pseudoalteromonas Are Antibacterial Cyclolipopeptides with LPS-Binding Activity” (Marine Drugs, 2020)
